# Experimental data published in patent US20190343908A1, “Therapeutic Combination for the Treatment of Cancer” (Nerium Biotechnology Inc., priority 2011, published 2019).
# Assays:
# HT55 (colorectal cancer) = experiment: Crystal Violet viability assay, HT55; format: cell-based, human; design: key: absorbance at 570 nm (crystal violet), background wavelength subtracted
# Description: (§1) Three different viability assays were chosen to complement each other and yielded results dependent on concentration and cell line: the Methyl Tetrazolium dye assay, the Sulforhodamine B fluorescent dye assay, and the Crystal Violet dye assay.
# (§2) The Sulforhodamine B and Crystal Violet assays provide information about protein and were used to complement the Methyl-Tetrazolium dye assay. […] It is used for the quantification of cellular proteins of cultured cells. The assay using Crystal Violet, a dye that binds electrostatically to proteins and stains DNA, provides a reliable, simple assay for measuring viability of cells.
# (§3) The Methyl Tetrazolium, Sulforhodamine B, and Crystal Violet assays were used to assess cell viabilities. The incubation times were 24 hours, 48 hours, and 72 hours. The Nerium oleander extract Anvirzel™ (a hot water extract of oleander obtained from Salud Integral, Honduras) was tested in concentrations ranging from 0.01 ng/mL to 10 ng/mL.
# (§4) Cells were detached by trypsinization (Trypsin-0.25% EDTA, Invitrogen, 25200-072) during the logarithmic phase of culture growth and plated in 96-well plates (18.000 cells/well) (Corning, Costar 359) in a final volume of 200 μl of medium per well. […] The absorbance was measured after 24 hours, 48 hours, and 72 hours of incubation.
# (§5) For the Crystal Violet assay, the medium was removed from the 96-well plates, the plates rinsed with PBS (Sigma, P3813) and then the cells were […] by the addition of 10% formalin (MERCK, 1.04003.2500) for 20 minutes at RT. Formalin was removed and 0.25% aqueous crystal violet (Sigma, HT901), dissolved in water, was added for 10 minutes at RT. Unbound Crystal Violet was rinsed by washing with water and finally 33% acetic acid was added to dissolve the dye.
# (§6) The optical density of each plate was measured on a μQuant spectrophotometer and the data were analyzed with Gen5 software (μQuant Biomolecular Spectrophotometer MQX200 and Gen5™ Microplate Data Collection & Analysis software, BioTek® Instruments. Inc, April 2008). Absorbance was measured at 570 nm for all assays and a second wavelength was measured in order to subtract noise. For the Methyl-Tetrazolium assay this second wavelength was 630 nm and for the Sulforhodamine B and Crystal Violet assays it was 690 nm.
# [1] = system: COR-L 105 (non-small cell lung carcinoma); experiment: Crystal Violet viability assay, COR-L 105; format: cell-based, human; design: key to CVE Average: absorbance at 570 nm (crystal violet), background wavelength subtracted; conditions: for CVE Average 24 h / CVE Average 48 h / CVE Average 72 h: COR-L 105, Run 3
# Description: as §1, §2, §3, §4, §5, §6
# [2] = system: 22Rv1 (human prostate cancer); experiment: Crystal Violet (CVE) viability assay, 22Rv1; format: cell-based; conditions: for Average absorbance, CVE 24 h / Average absorbance, CVE 48 h / Average absorbance, CVE 72 h: 22Rv1 Run 3
# Description: as §2, §3, §4, §5, §6
structure (smiles),measurement,setting,value
N.N.[Cl][Pt][Cl] [cisplatin],CVE Average,"HT55 (colorectal cancer); HT55, Run 1, 24 h, 0.1 μg/ml CDDP",0.838
same,CVE Average,"HT55 (colorectal cancer); HT55, Run 1, 24 h, 1 μg/ml CDDP",0.557
same,CVE Average,"HT55 (colorectal cancer); HT55, Run 1, 24 h, 10 μg/ml CDDP",0.728
same,CVE Average,"HT55 (colorectal cancer); HT55, Run 1, 24 h, 100 μg/ml CDDP",0.383
same,CVE Average,"HT55 (colorectal cancer); HT55, Run 1, 48 h, 0.1 μg/ml CDDP",0.588
same,CVE Average,"HT55 (colorectal cancer); HT55, Run 1, 48 h, 1 μg/ml CDDP",0.314
same,CVE Average,"HT55 (colorectal cancer); HT55, Run 1, 48 h, 10 μg/ml CDDP",0.405
same,CVE Average,"HT55 (colorectal cancer); HT55, Run 1, 48 h, 100 μg/ml CDDP",0.269
same,CVE Average,"HT55 (colorectal cancer); HT55, Run 1, 72 h, 0.1 μg/ml CDDP",0.901
same,CVE Average,"HT55 (colorectal cancer); HT55, Run 1, 72 h, 1 μg/ml CDDP",0.437
same,CVE Average,"HT55 (colorectal cancer); HT55, Run 1, 72 h, 10 μg/ml CDDP",0.436
same,CVE Average,"HT55 (colorectal cancer); HT55, Run 1, 72 h, 100 μg/ml CDDP",0.243
same,CVE Average,"HT55 (colorectal cancer); HT55 Run 2, 24 h, 0.1 μg/ml CDDP",1.745
same,CVE Average,"HT55 (colorectal cancer); HT55 Run 2, 24 h, 1 μg/ml CDDP",0.942
same,CVE Average,"HT55 (colorectal cancer); HT55 Run 2, 24 h, 10 μg/ml CDDP",1.075
same,CVE Average,"HT55 (colorectal cancer); HT55 Run 2, 24 h, 100 μg/ml CDDP",0.758
same,CVE Average,"HT55 (colorectal cancer); HT55 Run 2, 48 h, 0.1 μg/ml CDDP",0.793
same,CVE Average,"HT55 (colorectal cancer); HT55 Run 2, 48 h, 1 μg/ml CDDP",0.23
same,CVE Average,"HT55 (colorectal cancer); HT55 Run 2, 48 h, 10 μg/ml CDDP",0.281
same,CVE Average,"HT55 (colorectal cancer); HT55 Run 2, 48 h, 100 μg/ml CDDP",0.286
same,CVE Average,"HT55 (colorectal cancer); HT55 Run 2, 72 h, 0.1 μg/ml CDDP",0.937
same,CVE Average,"HT55 (colorectal cancer); HT55 Run 2, 72 h, 1 μg/ml CDDP",0.395
same,CVE Average,"HT55 (colorectal cancer); HT55 Run 2, 72 h, 10 μg/ml CDDP",0.326
same,CVE Average,"HT55 (colorectal cancer); HT55 Run 2, 72 h, 100 μg/ml CDDP",0.244
same,CVE Average,"HT55 (colorectal cancer); HT55 Run 3, 24 h, 0.1 μg/ml CDDP",0.591
same,CVE Average,"HT55 (colorectal cancer); HT55 Run 3, 24 h, 1 μg/ml CDDP",0.201
same,CVE Average,"HT55 (colorectal cancer); HT55 Run 3, 24 h, 10 μg/ml CDDP",0.812
same,CVE Average,"HT55 (colorectal cancer); HT55 Run 3, 24 h, 100 μg/ml CDDP",0.15
same,CVE Average,"HT55 (colorectal cancer); HT55 Run 3, 48 h, 0.1 μg/ml CDDP",1.099
same,CVE Average,"HT55 (colorectal cancer); HT55 Run 3, 48 h, 1 μg/ml CDDP",0.561
same,CVE Average,"HT55 (colorectal cancer); HT55 Run 3, 48 h, 10 μg/ml CDDP",1.712
same,CVE Average,"HT55 (colorectal cancer); HT55 Run 3, 48 h, 100 μg/ml CDDP",0.285
same,CVE Average,"HT55 (colorectal cancer); HT55 Run 3, 72 h, 0.1 μg/ml CDDP",1.228
same,CVE Average,"HT55 (colorectal cancer); HT55 Run 3, 72 h, 1 μg/ml CDDP",0.577
same,CVE Average,"HT55 (colorectal cancer); HT55 Run 3, 72 h, 10 μg/ml CDDP",2.329
same,CVE Average,"HT55 (colorectal cancer); HT55 Run 3, 72 h, 100 μg/ml CDDP",0.431
same,CVE Average 24 h,[1]; 0.1 μg/ml CDDP,0.388
same,CVE Average 48 h,[1]; 0.1 μg/ml CDDP,0.709
same,CVE Average 72 h,[1]; 0.1 μg/ml CDDP,0.457
same,CVE Average 24 h,[1]; 1 μg/ml CDDP,0.363
same,CVE Average 48 h,[1]; 1 μg/ml CDDP,0.517
same,CVE Average 72 h,[1]; 1 μg/ml CDDP,0.263
same,CVE Average 24 h,[1]; 10 μg/ml CDDP,0.358
same,CVE Average 48 h,[1]; 10 μg/ml CDDP,0.653
same,CVE Average 72 h,[1]; 10 μg/ml CDDP,0.387
same,CVE Average 24 h,[1]; 100 μg/ml CDDP,0.282
same,CVE Average 48 h,[1]; 100 μg/ml CDDP,0.341
same,CVE Average 72 h,[1]; 100 μg/ml CDDP,0.389
same,CVE Average,"[1]; Run 1, 24 h, 0.1 μg/ml CDDP",0.413
same,CVE Average,"[1]; Run 1, 24 h, 1 μg/ml CDDP",0.431
same,CVE Average,"[1]; Run 1, 24 h, 10 μg/ml CDDP",0.484
same,CVE Average,"[1]; Run 1, 24 h, 100 μg/ml CDDP",0.307
same,CVE Average,"[1]; Run 1, 48 h, 0.1 μg/ml CDDP",0.599
same,CVE Average,"[1]; Run 1, 48 h, 1 μg/ml CDDP",0.643
same,CVE Average,"[1]; Run 1, 48 h, 10 μg/ml CDDP",0.632
same,CVE Average,"[1]; Run 1, 48 h, 100 μg/ml CDDP",0.379
same,CVE Average,"[1]; Run 1, 72 h, 0.1 μg/ml CDDP",0.298
same,CVE Average,"[1]; Run 1, 72 h, 1 μg/ml CDDP",0.23
same,CVE Average,"[1]; Run 1, 72 h, 10 μg/ml CDDP",0.216
same,CVE Average,"[1]; Run 1, 72 h, 100 μg/ml CDDP",0.244
same,CVE Average,"[1]; Run 2, 24 h, 0.1 μg/ml CDDP",0.388
same,CVE Average,"[1]; Run 2, 24 h, 1 μg/ml CDDP",0.363
same,CVE Average,"[1]; Run 2, 24 h, 10 μg/ml CDDP",0.358
same,CVE Average,"[1]; Run 2, 24 h, 100 μg/ml CDDP",0.282
same,CVE Average,"[1]; Run 2, 48 h, 0.1 μg/ml CDDP",0.709
same,CVE Average,"[1]; Run 2, 48 h, 1 μg/ml CDDP",0.517
same,CVE Average,"[1]; Run 2, 48 h, 10 μg/ml CDDP",0.653
same,CVE Average,"[1]; Run 2, 48 h, 100 μg/ml CDDP",0.341
same,CVE Average,"[1]; Run 2, 72 h, 0.1 μg/ml CDDP",0.457
same,CVE Average,"[1]; Run 2, 72 h, 1 μg/ml CDDP",0.263
same,CVE Average,"[1]; Run 2, 72 h, 10 μg/ml CDDP",0.387
same,CVE Average,"[1]; Run 2, 72 h, 100 μg/ml CDDP",0.389
same,CVE 24 h Average,"[2]; 22Rv1 Run 1, 0.1 μg/ml CDDP",0.27
same,CVE 48 h Average,"[2]; 22Rv1 Run 1, 0.1 μg/ml CDDP",0.501
same,CVE 72 h Average,"[2]; 22Rv1 Run 1, 0.1 μg/ml CDDP",0.803
same,CVE 24 h Average,"[2]; 22Rv1 Run 1, 1 μg/ml CDDP",0.152
same,CVE 48 h Average,"[2]; 22Rv1 Run 1, 1 μg/ml CDDP",0.437
same,CVE 72 h Average,"[2]; 22Rv1 Run 1, 1 μg/ml CDDP",0.606
same,CVE 48 h Average,"[2]; 22Rv1 Run 1, 10 μg/ml CDDP",0.351
same,CVE 72 h Average,"[2]; 22Rv1 Run 1, 10 μg/ml CDDP",0.439
same,CVE 24 h Average,"[2]; 22Rv1 Run 1, 100 μg/ml CDDP",0.124
same,CVE 48 h Average,"[2]; 22Rv1 Run 1, 100 μg/ml CDDP",0.273
same,CVE 72 h Average,"[2]; 22Rv1 Run 1, 100 μg/ml CDDP",0.233
same,CVE 24 h Average,"[2]; 22Rv1 Run 2, 0.1 μg/ml CDDP",0.541
same,CVE 48 h Average,"[2]; 22Rv1 Run 2, 0.1 μg/ml CDDP",0.776
same,CVE 72 h Average,"[2]; 22Rv1 Run 2, 0.1 μg/ml CDDP",0.784
same,CVE 24 h Average,"[2]; 22Rv1 Run 2, 1 μg/ml CDDP",0.305
same,CVE 48 h Average,"[2]; 22Rv1 Run 2, 1 μg/ml CDDP",0.517
same,CVE 72 h Average,"[2]; 22Rv1 Run 2, 1 μg/ml CDDP",0.286
same,CVE 24 h Average,"[2]; 22Rv1 Run 2, 10 μg/ml CDDP",0.376
same,CVE 48 h Average,"[2]; 22Rv1 Run 2, 10 μg/ml CDDP",0.434
same,CVE 72 h Average,"[2]; 22Rv1 Run 2, 10 μg/ml CDDP",0.206
same,CVE 24 h Average,"[2]; 22Rv1 Run 2, 100 μg/ml CDDP",0.228
same,CVE 48 h Average,"[2]; 22Rv1 Run 2, 100 μg/ml CDDP",0.228
same,CVE 72 h Average,"[2]; 22Rv1 Run 2, 100 μg/ml CDDP",0.256
same,"Average absorbance, CVE 24 h",[2]; 0.1 μg/ml CDDP,0.85
same,"Average absorbance, CVE 48 h",[2]; 0.1 μg/ml CDDP,0.644
same,"Average absorbance, CVE 72 h",[2]; 0.1 μg/ml CDDP,0.45
same,"Average absorbance, CVE 24 h",[2]; 1 μg/ml CDDP,0.434
same,"Average absorbance, CVE 48 h",[2]; 1 μg/ml CDDP,0.404
same,"Average absorbance, CVE 72 h",[2]; 1 μg/ml CDDP,0.284
same,"Average absorbance, CVE 24 h",[2]; 10 μg/ml CDDP,0.295
same,"Average absorbance, CVE 48 h",[2]; 10 μg/ml CDDP,0.289
same,"Average absorbance, CVE 72 h",[2]; 10 μg/ml CDDP,0.283
same,"Average absorbance, CVE 24 h",[2]; 100 μg/ml CDDP,0.215
same,"Average absorbance, CVE 48 h",[2]; 100 μg/ml CDDP,0.212
same,"Average absorbance, CVE 72 h",[2]; 100 μg/ml CDDP,0.234
